Patent publication US20220220106A1, “QUINOLINE COMPOUNDS AND PHARMACEUTICAL COMPOSITIONS AND USES THEREOF” (Academy of Military Medical Sciences, priority 2019, published 2022)

Key:
[1] = system: Enterovirus 71 (EV71) H strain; assay: In vitro anti-EV71 activity (antiviral activity in RD cells, CellTiter-Glo); assay type: cell-based; settings: for in vitro anti-EV71 activity, in words: EV71, RD cells; for IC50: Enterovirus A, 96 h, EV71 H strain, RD cells, 4 days, CellTiter-Glo, read-out: IC50
Summary of the method: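 RD cells infected with 100TCID50 EV71 in DMEM+2% FBS, with compound in 10-point three-fold dilutions, cultured 4 days at 37° C. Cell viability by CellTiter-Glo luminescence; inhibition rate relative to cell control fitted to S-curve for IC50. TD50 derived likewise; SI=TD50/IC50.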

[2] = system: RD cells; assay: Detection of cytotoxicity in RD cells (CellTiter-Glo); assay type: cell-based; settings: 4 days, CellTiter-Glo, median toxic dose
Summary of the method: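 RD cells (1*10^5/mL) cultured 4 days at 37 °C with 10 compound concentrations from 3-fold dilution of a 400 μM pretreatment solution, final being 0.5 times that. Viability by CellTiter-Glo luminescence versus cell control; TD50 from S-curve fit; SI=TD50/IC50.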

[3] = target: T1, mTOR kinase (Homo sapiens, UniProt P42345); assay: In vitro inhibitory activity on mTOR kinase (TR-FRET, GFP-4E-BP1 substrate); assay type: biochemical; settings: for IC50: 0.5 μg/mL mTOR, 0.4 μM GFP-4E-BP1, 3 μM ATP
T1 construct: purchased Thermo Fisher PV4753
Procedure: Preparation of Reaction Buffers:
Basic buffer composition: 50 mM (mmol/L) HEPES (pH 7.5), 1 mM EGTA, 0.01% Tween-20, 10 mM MnCl2, 2 mM DTT (diluted from 500 mM before used).
(2) mTOR kinase buffer solution: 1650 μL of 2.5×mTOR kinase buffer solution was composed of 1640.2 μL of 1× basic buffer and 9.8 μL of mTOR (0.21 mg/mL stock solution), and the final concentration was 0.5 μg/mL.
(3) Detection buffer solution: 3960 μL of 2× detection buffer solution was composed of 3797.1 μL of TR-FRET buffer diluent (purchased from Thermo Fisher, catalog number: PV3574), 4.5 μL of Tb-anti-p4E-BP1 antibody (3.49 μM stock solution, purchased from Thermo Fisher, catalog number: PV4757) and 158 μL of EDTA (500 mM stock solution), and the final concentrations were 2 nM Tb-anti-p4E-BP1 antibody and 10 mM EDTA.
(1) 20 μL of 100% DMSO solution containing 5 mM compound to be tested was added to a 96-well plate.
(2) The compound was serially diluted 3 times in DMSO.
(3) 1 μL of the compound in the previous step was taken, diluted with 19 μL of mTOR kinase buffer, and transferred to another 96-well plate.
(4) 4 μL of mTOR kinase solution (purchased from Thermo Fisher, catalog number: PV4753) was added to a 384-well plate.
(5) 2 μL of the compound in G was taken out and added to the 384-well plate with mTOR kinase, and incubated at room temperature for 15 minutes.
(6) 4 μL of substrate solution was added to initiate the reaction.
The final concentrations of mTOR reaction solution were: 0.5 μg/mL mTOR, 0.4 μM GFP-4E-BP1, 3 μM ATP.
The final concentration of the DMSO solution was 1%.
(7) Incubation was performed for 60 minutes at room temperature.
(8) 10 μL of detection buffer was added. The final concentrations were 2 nM Tb-anti-p4E-BP1 antibody and 10 mM EDTA.
(9) Incubation was performed for 30 minutes at room temperature.
(10) TR-FRET value was read on MD5 multi-mode plate reader (Molecular Devices). The excitation wavelength was 340 nm, the emission wavelength 1 was 495 nm, and the emission wavelength 2 was 520 nm. The ratio of 520 nm/495 nm readings was calculated as TR-FRET value.
IC50 of compound was fitted by nonlinear regression equation:
Y=Bottom+(Top-Bottom)/(1+10^((LogIC50-X)*HillSlope));
X: common logarithm value of compound concentration; Y: TR-FRET value (520 nm/495 nm).

[4] = target: T2, mTORC2 (Homo sapiens, UniProt P42345); assay: Western blot, phosphorylation of Ser473 of Akt in RD cells (mTORC2 inhibition); assay type: cell-based; settings: 20 μM, 2 hours, Western blot (FIG. 1)
T2 construct: endogenous in cells; host or cells: RD cells
Procedure: (§1) In order to test the inhibitory activity of the synthesized compounds on the two mTOR complexes, the inhibitory activity experiments of mTORC1 and mTORC2 were carried out. Since mTORC1 and mTORC2 exerted their function by activating the phosphorylation of downstream substrates, the inhibitory activity of the compounds on mTORC1 and mTORC2 could be determined by detecting the phosphorylation levels of the Thr389 site of mTORC1 downstream substrate p70S6K1 and the Ser473 site of mTORC2 downstream substrate Akt.
(§2) Pretreatment of Compound:
(§3) (1) RD cells were cultured in DMEM medium containing 10% FBS and 1×PS (penicillin and streptomycin were at concentrations 100 IU and 100 μg/mL, respectively) at 37° C. and 5% CO2.
(§4) (2) The RD cells (5×10^5 cells/2 mL medium) were inoculated into a 6-well plate and incubated at 37° C. and 5% CO2 for 24 hours.
(§5) (3) The cells were washed once with PBS, and the cells were cultured in serum-free medium without nutrients overnight.
(§6) (4) Formulation of compounds: […]
(§7) Preparation of insulin medium: Insulin was diluted in DMEM medium containing 10% FBS and 1×PS so that the final concentration of insulin was 167 nM.
(§8) Pretreatment of compound to be tested: The compound was dissolved in DMSO so that the concentration of the test compound was 20 mM, and the compound was diluted in 167 nM insulin medium to reach a concentration of 20 μM.
(§9) Preparation of rapamycin solution: Rapamycin was dissolved in DMSO to a concentration of 10 mM, and the rapamycin was diluted in 167 nM insulin medium to reach a concentration of 20 μM.
(§10) (5) The serum-free medium in each well was removed.
(§11) (6) 2 mL of complete medium containing DMSO was added to each well as a control carrier. The final concentration of DMSO was 0.2%.
(§12) (7) 2 mL of 20 μM rapamycin solution and 20 μM the compound to be tested were added to the designated wells, respectively. The final concentration of DMSO was 0.2%.
(§13) (8) The cells were incubated for 2 hours at 37° C. and 5% CO2.
(§14) Protein extraction and concentration determination:
(§15) (1) The cells were washed once with refrigerated PBS, and then the PBS was discarded.
(§16) (2) 150 μL of cell extraction buffer (RIPA, […], catalog number: C1053) was transferred into each well to lyse the cells, and then the resulting cell solution were incubated on ice for 30 minutes.
(§17) (3) Centrifugation was performed at 14000 rpm (13000× g) for 30 minutes at 4° C.
(§18) (4) The supernatant was transferred into a new eppendorf tube, and the cell lysate was stored at −80° C. before testing.
(§19) (5) The protein concentration was determined by BCA method.
(§20) Preparation of Buffer Solutions:
(§21) (1) 100× Protease inhibitor (Beyotime, catalog number: P1005): 1 mL of redistilled water was added to the protease inhibitor and stirred gently until the solid was completely dissolved.
(§22) (2) Lysis Buffer: […] of 100× protease inhibitor and 2× phosphatase inhibitor Cocktails PhosSTOP (Beyotime, catalog number: P1082) were added to 100 mL of the cell extract, and stirred gently until it was completely dissolved.
(§23) (3) Electrophoresis Running Buffer:
(§24) 10×MOPS buffer: 52.33 g of MOPS, 30.29 g of Tris base, 10 mL of 0.5 mol/L EDTA (pH 8.5) and 5 g of SDS was dissolved in 400 mL of redistilled water, stirred to dissolve, and the pH was adjusted to 7.5, then redistilled water was added again to reach a volume of 500 mL; 1×MOPS: 100 mL of 10×MOPS was diluted with redistilled water to 1000 mL.
(§25) (4) 1× Transfer Buffer: […] of 10× transfer buffer (144 g of glucine, 30.3 g of trisbase, and distilled water were mixed to reach a volume of 1 L) and 400 mL of methanol were dissolved in 1500 mL of redistilled water, and then the redistilled water was added to reach a volume of 2000 mL. […]

[5] = target: T3, mTORC1 (Homo sapiens, UniProt P42345); assay: Western blot, phosphorylation of Thr389 of p70S6K1 in RD cells (mTORC1 inhibition); assay type: cell-based; settings: 20 μM, 2 hours, Western blot (FIG. 1)
T3 construct: endogenous in cells; host or cells: RD cells
Procedure: as §1, §2, §3, §4, §5, §6, §7, §8, §9, §10, §11, §12, §13, §14, §15, §16, §17, §18, §19, §20, §21, §22, §23, §24, §25

| SMILES | in vitro anti-EV71 activity, in words [1] | IC50 [1] | TD50 [2] | melting point | inhibitory activity on mTOR kinase, in words [3] | IC50 [3] | phosphorylation expression level of Akt [4] | p70 phosphorylation expression level [5] |
| --- | --- | --- | --- | --- | --- | --- | --- | --- |
| CC(=O)/C=C/c1cnc2ccc(-c3ccc(N)cc3)cc2c1Nc1cccc(C(F)(F)F)c1 [HTL-2-35, (E)-6-(4-amino)phenyl-4-[3-(trifluoromethyl)phenyl]aminoquinoline-3-butenone] | moderate anti-EV71 activity | 3700 ± 10 nM | 5.14 ± 1.92 µM | 183 to 185 °C | weak inhibitory activity | 7770 nM | – | – |
| COc1ncccc1-c1ccc2ncc3ccc(=O)n(-c4cccc(C(F)(F)F)c4)c3c2c1 [HTL-7-02, 9-[3-(2-methoxy)pyridyl]-2-oxo-1-[3-(trifluoromethyl)phenyl]-1,2-dihydrobenzo[h][1,6]naphthyridine] | – | > 200000 nM | >200 µM | – | moderate inhibitory activity | 974 nM | – | – |
| Cc1ccc(-c2ccc3ncc4oc(=O)n(-c5cccc(C(F)(F)F)c5)c4c3c2)cn1 [HTL-5-23, 8-[3-(6-methyl)pyridyl]-1-[3-(trifluoromethyl)phenyl]oxazolo[5,4-c] quinolin-2(1H)-one] | moderate inhibitory activity | 4780 ± 1730 nM | 16.88 ± 5.46 µM | 299 to 300 °C | moderate inhibitory activity | 257 nM | – | – |
| NC(=O)NC/C=C/c1ccc2ncc3oc(=O)n(-c4cccc(C(F)(F)F)c4)c3c2c1 [HTL-6-34, (E)-8-(3-ureido-propenyl)-1-[3-(trifluoromethyl)phenyl]oxazolo[5,4-c]quinolin-2(1H)-one] | – | > 200000 nM | 66.64 ± 1.17 µM | – | moderate inhibitory activity | 849 nM | – | – |
| CC(C)C(=O)Nc1ccc(-c2ccc3ncc4ccc(=O)n(-c5cccc(C(F)(F)F)c5)c4c3c2)cn1 [HTL-7-07, 9-[3-(2-isobutyrylamino)pyridyl]-2-oxo-1-[3-(trifluoromethyl)phenyl]-1,2-dihydrobenzo[h][1,6]naphthyridine] | – | 380 ± 390 nM | 0.46 ± 0.03 µM | – | – | – | significantly down-regulate | significantly down-regulate |
| Cc1noc(C)c1-c1ccc2ncc3ccc(=O)n(-c4cccc(C(F)(F)F)c4)c3c2c1 [HTL-7-12, 9-[4-(3,5-dimethyl)isoxazolyl]-2-oxo-1-[3-(trifluoromethyl)phenyl]-1,2-dihydrobenzo[h][1,6]naphthyridine] | – | 36900 ± 410 nM | >200 µM | 121 to 122 °C | – | 1210 nM | – | – |
